# ChEMBL document CHEMBL1641500, “Carbonic anhydrase inhibitors. Inhibition studies with anions and sulfonamides of a new cytosolic enzyme from the scleractinian coral Stylophora pistillata” (Bioorg Med Chem Lett, 2011)
# pKi: −log10 of the molar value.
# Molecular target: T1, Alpha carbonic anhydrase (Stylophora pistillata, UniProt B5SU02)
# T1 sequence (B5SU02 whole entry): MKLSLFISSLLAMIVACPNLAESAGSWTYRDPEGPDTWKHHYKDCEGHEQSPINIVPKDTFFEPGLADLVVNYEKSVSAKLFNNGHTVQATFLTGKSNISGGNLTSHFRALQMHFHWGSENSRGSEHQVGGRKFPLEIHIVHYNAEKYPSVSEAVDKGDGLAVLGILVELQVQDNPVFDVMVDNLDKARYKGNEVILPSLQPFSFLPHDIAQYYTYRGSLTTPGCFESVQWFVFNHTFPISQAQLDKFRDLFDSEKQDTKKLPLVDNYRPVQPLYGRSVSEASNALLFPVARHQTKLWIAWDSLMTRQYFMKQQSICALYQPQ
row,Structure (SMILES),pKi
1,Br [BROMIDE],5.01
2,N#CO [CYANATE],3.23
3,F [FLUORIDE ION],3.21
4,Cl [HYDROCHLORIC ACID],3.30
5,I [IODIDE],5.05
6,O=[N+]([O-])O [NITRIC ACID],3.25
7,O=NO [NITROUS ACID],3.11
8,OB(O)c1ccccc1 [PHENYLBORONIC ACID],9.17
9,NS(=O)(=O)O [SULFAMATE],9.09
10,O=S(O)O [SULFUROUS ACID],3.39
11,S1SSSSSSS1 [SULFUR],3.24

# Molecular target: Carbonic anhydrase 1 (Homo sapiens, UniProt P00915)
# Sequence (P00915 whole entry): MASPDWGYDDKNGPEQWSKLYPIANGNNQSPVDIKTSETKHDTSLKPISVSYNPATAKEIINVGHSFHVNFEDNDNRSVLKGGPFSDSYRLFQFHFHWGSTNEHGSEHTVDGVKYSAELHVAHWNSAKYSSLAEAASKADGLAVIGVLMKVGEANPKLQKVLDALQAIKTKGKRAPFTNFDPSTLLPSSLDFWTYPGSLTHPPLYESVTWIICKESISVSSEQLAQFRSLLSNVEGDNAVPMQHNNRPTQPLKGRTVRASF
row,Structure (SMILES),pKi
1,OB(O)c1ccccc1 [PHENYLBORONIC ACID],7.23
2,NS(=O)(=O)O [SULFAMATE],10.68
3,S1SSSSSSS1 [SULFUR],6.22

# Molecular target: Carbonic anhydrase 6 (Homo sapiens, UniProt P23280)
# Sequence (P23280 whole entry): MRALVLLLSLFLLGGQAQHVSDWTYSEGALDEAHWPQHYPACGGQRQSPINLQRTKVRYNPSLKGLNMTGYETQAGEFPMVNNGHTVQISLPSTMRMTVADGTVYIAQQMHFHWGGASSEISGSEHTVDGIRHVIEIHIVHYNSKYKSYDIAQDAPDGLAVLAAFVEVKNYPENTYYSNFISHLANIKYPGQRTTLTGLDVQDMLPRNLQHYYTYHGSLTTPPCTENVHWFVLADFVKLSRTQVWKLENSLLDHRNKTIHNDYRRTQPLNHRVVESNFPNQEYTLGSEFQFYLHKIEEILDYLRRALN
row,Structure (SMILES),pKi
1,Br [BROMIDE],3.14
2,N#CO [CYANATE],3.16
3,F [FLUORIDE ION],3.22
4,Cl [HYDROCHLORIC ACID],3.14
5,I [IODIDE],3.09
6,O=[N+]([O-])O [NITRIC ACID],3.12
7,O=NO [NITROUS ACID],3.09
8,OB(O)c1ccccc1 [PHENYLBORONIC ACID],9.09
9,O=C1NS(=O)(=O)c2ccccc21 [SACCHARIN],6.03
10,O=S(O)O [SULFUROUS ACID],1.85
11,S1SSSSSSS1 [SULFUR],3.15

# Molecular target: T2, Carbonic anhydrase (Stylophora pistillata, UniProt C0IX24)
# T2 sequence (C0IX24 whole entry): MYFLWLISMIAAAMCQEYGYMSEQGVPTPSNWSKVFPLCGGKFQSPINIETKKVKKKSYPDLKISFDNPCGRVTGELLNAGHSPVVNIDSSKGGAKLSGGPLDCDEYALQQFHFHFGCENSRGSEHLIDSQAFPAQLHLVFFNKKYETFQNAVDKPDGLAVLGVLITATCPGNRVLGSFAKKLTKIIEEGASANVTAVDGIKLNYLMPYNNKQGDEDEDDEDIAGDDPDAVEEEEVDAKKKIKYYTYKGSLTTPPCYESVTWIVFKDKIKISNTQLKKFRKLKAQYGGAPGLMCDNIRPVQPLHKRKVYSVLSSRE
row,Structure (SMILES),pKi
1,NNc1ccccc1S(N)(=O)=O,6.19
2,Nc1ccc(S(N)(=O)=O)cc1I,6.16
3,Nc1ccc(S(N)(=O)=O)cc1Br,6.27
4,NCCc1ccc(S(N)(=O)=O)cc1,6.24
5,Nc1ccc(S(=O)(=O)NCCc2ccc(S(N)(=O)=O)cc2)cc1,6.04
6,NS(=O)(=O)c1ccc(S(=O)(=O)Nc2cccc3c(Cl)c[nH]c23)cc1,6.40
7,NS(=O)(=O)c1nnc(NS(=O)(=O)c2ccccc2)s1 [BENZOLAMIDE],6.67
8,CCN[C@H]1CN(CCCOC)S(=O)(=O)c2sc(S(N)(=O)=O)cc21 [BRINZOLAMIDE],6.77
9,Br [BROMIDE],3.02
10,Cc1ccc(-c2cc(C(F)(F)F)nn2-c2ccc(S(N)(=O)=O)cc2)cc1 [CELECOXIB],6.16
11,N#CO [CYANATE],3.16
12,F [FLUORIDE ION],3.04
13,Cl [HYDROCHLORIC ACID],3.28
14,I [IODIDE],1.48
15,NCc1ccc(S(N)(=O)=O)cc1 [MAFENIDE],6.29
16,O=[N+]([O-])O [NITRIC ACID],3.00
17,O=NO [NITROUS ACID],2.50
18,Cc1ccc(S(N)(=O)=O)cc1 [P-TOLUENESULFONAMIDE],6.29
19,OB(O)c1ccccc1 [PHENYLBORONIC ACID],11.09
20,O=C1NS(=O)(=O)c2ccccc21 [SACCHARIN],6.98
21,NS(=O)(=O)O [SULFAMATE],11.07
22,NS(N)(=O)=O [SULFAMIDE],11.24
23,O=S(O)O [SULFUROUS ACID],3.37
24,S1SSSSSSS1 [SULFUR],2.40
